In US10961246B2, “18F-labelled folates as PET radiotracers” (MERCK & CIE, priority 2008, dated 2021):

Tests used:
folate receptor [1] = experiment: Ex vivo biodistribution study in mice bearing KB tumor xenografts, control vs folic acid blockade; set-up: species or system male NMRI nu/nu mice
Procedure: (§1) γ-[^18F]fluoro-folic acid was applied in ex vivo biodistribution studies using male NMRI nu/nu mice bearing KB tumor xenografts. ˜2 MBq of the radiotracer were injected into each animal. In a blockade group, 200 μg natural folic acid was injected 10 min prior to the radiotracer. The animals were sacrificed 105 min post injection.

folate receptor [2] = target: T1, folate receptor (Homo sapiens, UniProt P15328); experiment: as above; set-up: species or system male NMRI nu/nu mice; conditions: ~2 MBq radiotracer; blockade group 200 μg natural folic acid 10 min prior; sacrificed 105 min post injection; KB tumor
T1 construct: endogenous in cells; host or cells: KB tumor xenografts in male NMRI nu/nu mice
T1 sequence (P15328 25-234 limits assumed): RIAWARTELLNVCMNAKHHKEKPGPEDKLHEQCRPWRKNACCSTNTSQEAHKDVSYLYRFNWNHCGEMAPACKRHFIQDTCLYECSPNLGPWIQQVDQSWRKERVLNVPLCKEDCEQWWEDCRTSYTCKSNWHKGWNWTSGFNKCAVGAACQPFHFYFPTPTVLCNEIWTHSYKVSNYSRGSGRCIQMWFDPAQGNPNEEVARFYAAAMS
Procedure: as §1

folate receptor [3] = type: in vivo, male NMRI nu/nu mice; conditions: ca. 10 MBq; scans 75-105 min post injection
Procedure: (§2) In vivo PET imaging using the γ-[^18F]fluoro-folic acid was performed in male NMRI nu/nu mice bearing KB tumor xenografts. Ca. 10 MBq of the radiotracer were injected into each animal. In the blockade group, 200 μg natural folic acid was injected 10 min prior to the radiotracer. The PET scans were acquired from 75 min to 105 min post injection.
(§3) This pattern is consistent with the physiological distribution of the folate receptor and points out the high specificity of γ-[^18F]fluoro-folic acid.
(§4) FIG. 3 show representative series of normalized horizontal slices of whole body PET scans using γ-[^18F]fluoro-folic acid under control and blockade conditions. Arrows with circles indicate the tumor site and arrows with squares indicate the kidneys.

folate receptor [4] = target: T1, folate receptor; type: in vivo, male NMRI nu/nu mice; conditions: blockade 200 μg natural folic acid 10 min prior; scans 75-105 min post injection
Procedure: as §2, §3, §4

Nc1nc2ncc(CNc3ccc(C(=O)N[C@@H](CC([18F])C(=O)O)C(=O)O)cc3)nc2c(=O)[nH]1 (stereo partly shown) [γ-[^18F]fluoro-folic acid, γ-[^18F]fluorofolic acid]
uptake in folate receptor-positive tissues, such as tumor and kidney (FIG. 2) (folate receptor [1]; control group vs blockade group): high specific uptake | specific blockade of radiotracer uptake in the kidneys (folate receptor [1]; ~2 MBq radiotracer, blockade group 200 μg natural folic acid 10 min prior, sacrificed 105 min post injection, kidneys): 86.0% | specific blockade of radiotracer uptake in folate receptor-positive KB tumors (folate receptor [2]): 90.0% | uptake in liver cells (PET) (folate receptor [3]): radioactivity accumulation | uptake in the kidney cortex (PET) (folate receptor [3]): high specific uptake | uptake in the kidney medulla (PET) (folate receptor [3]): no uptake | specificity of uptake in PET (folate receptor [4]): highly specific and blocked by natural folic acid
